Columns and labels:
[1] = 37° C.; cited from earlier work

| Substance | Intrinsic Dissolution Rates (37° C., solution of pH 8) [mg/cm^2/min] | other results |
| --- | --- | --- |
| ferric citrate [PAN031203A] | 3.82 | – |
| ferric citrate [PAN031203B] | 4.00 | – |
| ferric citrate [PAN031203C] | 2.68 | – |
| ferric citrate [PAN031203D] | 2.95 | – |
| ferric citrate [PAN031203E] | 3.13 | – |
| ferric citrate [STM-134, reference compound] | 1.88 | Mean Intrinsic Dissolution Rates (37° C., solution of pH 8): 1.88 mg/cm^2/min; Mean Dissolution Rates (Table 2, one value for the pair of samples -1 and -2, listed as STM-134-1): 2.47 mg/cm2/min |
| ferric citrate [crystalline ferric citrate] | – | rate of dissolution (time) [1]: 10 to 12 h |
